The structures appear in SMILES notation. ≈ marks a conversion by molar mass, not a printed value. Non-standard residues stand in square brackets, D forms with d. Residues, ends and D or L forms follow the SMILES beside them. His(τ-Bzl) = N[C@@H](Cc1cn(Cc2ccccc2)cn1)C(=O)O; Phe(4-Me) = Cc1ccc(C[C@H](N)C(=O)O)cc1; Cha = N[C@@H](CC1CCCCC1)C(=O)O; Phg = N[C@H](C(=O)O)c1ccccc1; Orn = NCCC[C@H](N)C(=O)O; Dab = NCC[C@H](N)C(=O)O

The subject of series [1] is Mycobacterium intracellulare. The series can be described thus: Anti-bacterial activity against Mycobacterium intracellulare ATCC 23068 after 68 to 72 hrs by Alamar blue assay. It counts as functional, cell-based.
The test system of another series is Candida albicans. The series can be described thus: Antifungal activity against Candida albicans ATCC 90028 after 18 to 24 hrs by Alamar blue assay. It is filed as functional.
In the next series the test system is Nakaseomyces glabratus. As to the kind of experiment: Antifungal activity against Candida glabrata ATCC 90030 after 18 to 24 hrs by Alamar blue assay. It counts as functional.
The test system of a further series is Vero. The series can be described thus: Cytotoxicity against African green monkey Vero cells up to 10 ug/ml after 48 hrs by neutral red dye based assay. It is filed as cell-based. The following applies: chlorocebus sabaeus.
The next series deals with Pseudomonas aeruginosa. As to the kind of experiment: Anti-bacterial activity against Pseudomonas aeruginosa ATCC 27853 by CLSI method. It is filed as functional.
The next series relates to Escherichia coli. As to the kind of experiment: Anti-bacterial activity against Escherichia coli ATCC 35218 by CLSI method. It is filed as functional.
The subject of another series is Aspergillus fumigatus. As to the kind of experiment: Antifungal activity against Aspergillus fumigatus ATCC 90906 after 68 to 72 hrs by Alamar blue assay. It is filed as functional. For orientation: Alamar Blue is a resazurin reagent that responds to reducing activity.
Another series has as its system Pichia kudriavzevii. As to the kind of experiment: Antifungal activity against Candida krusei ATCC 6258 after 18 to 24 hrs by Alamar blue assay. It is filed as functional.
Series [2] deals with Cryptococcus neoformans. The series can be described thus: Antifungal activity against Cryptococcus neoformans ATCC 90113 after 68 to 72 hrs by Alamar blue assay. It counts as functional.
Series [3] has as its system Cryptococcus neoformans. The series can be described thus: Fungicidal activity against Cryptococcus neoformans ATCC 90113 after 68 to 72 hrs by Alamar blue assay. It counts as functional.

Usually IC50 stands for the midpoint of a concentration-inhibition curve. As to `Cc1ccc(C[C@H](NC(=O)[C@@H](Cc2ccccc2)NC(=O)[C@@H](Cc2c[nH]c3ccccc23)NC(=O)[C@@H](N)CCN)C(=O)N[C@H](Cc2ccccc2)C(=O)N[C@@H](Cc2cn(Cc3ccccc3)cn2)C(N)=O)cc1` (H-[Dab][dW][dF][Phe(4-Me)][dF][His(τ-Bzl)]-NH2), the IC50 result (in series [1]; with Candida albicans; in the series with Nakaseomyces glabratus; in the series with Pseudomonas aeruginosa; with Escherichia coli; in the series on Aspergillus fumigatus) was “Not Active” in each case. Also, the Activity result with Vero is listed as “Non-Toxic”.

What is called MIC is the lowest concentration that inhibits growth of the organism. Regarding `CC[C@H](C)[C@H](NC(=O)[C@H](CC1CCCCC1)NC(=O)[C@H](Cc1ccccc1)NC(=O)[C@@H](N)CCCN)C(=O)N[C@H](Cc1ccccc1)C(=O)N[C@@H](Cc1cn(Cc2ccccc2)cn1)C(N)=O` (H-[Orn]F[Cha]I[dF][His(τ-Bzl)]-NH2), the IC50 entry (in the series on Pichia kudriavzevii; in [1]; in the series on Candida albicans; in the series with Nakaseomyces glabratus; with Pseudomonas aeruginosa; with Aspergillus fumigatus) was “Not Active” in each case. The MIC in the series with Cryptococcus neoformans [2] was 2.5 µg/mL (≈ 2.72 µM). Also, the Activity result in the series with Vero is reported as “Non-Toxic”.

For `CC[C@H](C)[C@H](NC(=O)[C@H](CC1CCCCC1)NC(=O)[C@@H](NC(=O)[C@@H](N)CCCN)c1ccccc1)C(=O)N[C@H](Cc1ccccc1)C(=O)N[C@@H](Cc1cn(Cc2ccccc2)cn1)C(N)=O` (H-[Orn][Phg][Cha]I[dF][His(τ-Bzl)]-NH2), the IC50 entry (in the series with Pichia kudriavzevii; in [1]; in the series on Candida albicans; in the series on Nakaseomyces glabratus; in the series on Pseudomonas aeruginosa; in the series with Aspergillus fumigatus) was “Not Active” throughout. For the same compound, the Activity entry in the series on Vero is “Non-Toxic”.

As a reminder, the MFC is the lowest tested concentration that kills the fungus rather than only halting it. As to `CC[C@H](C)[C@H](NC(=O)[C@H](CC1CCCCC1)NC(=O)[C@@H](Cc1ccccc1)NC(=O)[C@@H](N)CCCN)C(=O)N[C@H](Cc1ccccc1)C(=O)N[C@@H](Cc1cn(Cc2ccccc2)cn1)C(N)=O` (H-[Orn][dF][Cha]I[dF][His(τ-Bzl)]-NH2), the IC50 result in the series with Pichia kudriavzevii, in the series on Candida albicans, in the series on Nakaseomyces glabratus, in the series with Pseudomonas aeruginosa and in the series on Aspergillus fumigatus was “Not Active” each time. Also, in the series on Vero, the Activity result was “Non-Toxic”. In the series with Cryptococcus neoformans [3], this compound returned an MFC of 1.25 µg/mL (≈ 1.36 µM).

In the case of `CC[C@H](C)[C@H](NC(=O)[C@H](CC1CCCCC1)NC(=O)[C@@H](CC(C)C)NC(=O)[C@@H](N)CCCN)C(=O)N[C@H](Cc1ccccc1)C(=O)N[C@@H](Cc1cn(Cc2ccccc2)cn1)C(N)=O` (H-[Orn][dL][Cha]I[dF][His(τ-Bzl)]-NH2), the IC50 result in the series with Pichia kudriavzevii, in the series on Candida albicans, in the series on Nakaseomyces glabratus, with Pseudomonas aeruginosa and in the series on Aspergillus fumigatus was “Not Active” each time. The MIC was 20 µg/mL (≈ 22.6 µM) in series [1] (Mycobacterium intracellulare, ATCC 23068) and 1.25 µg/mL (≈ 1.41 µM) in the series on Cryptococcus neoformans [2]. Moreover, the Activity entry in the series with Vero is “Non-Toxic”.

Regarding `CC[C@@H](C)[C@@H](NC(=O)[C@H](CC1CCCCC1)NC(=O)[C@@H](Cc1c[nH]c2ccccc12)NC(=O)[C@@H](N)CCCN)C(=O)N[C@H](Cc1ccccc1)C(=O)N[C@@H](Cc1cn(Cc2ccccc2)cn1)C(N)=O` (H-[Orn][dW][Cha][dI][dF][His(τ-Bzl)]-NH2), the IC50 entry in the series with Nakaseomyces glabratus, in the series with Pseudomonas aeruginosa and in the series on Aspergillus fumigatus was “Not Active” in each case. Further, the Activity entry in the series with Vero is on record as “Non-Toxic”.

For `O=C(O)c1cn(C2CC2)c2cc(N3CCNCC3)c(F)cc2c1=O` [CIPROFLOXACIN], the IC50 in series [1] (Mycobacterium intracellulare, ATCC 23068, read-out: IC50) is 0.47 µg/mL (≈ 1.42 µM).
